For one data set, the system named is FADD−/− Jurkat cells. As to the kind of experiment: Inhibition of TNF-induced programmed necrosis of FADD deficient Jurkat cells (Cell Titer-Glo viability). In kind it is cell-based. The following applies: Homo sapiens, Jurkat, FADD−/− Jurkat cells. From the text:
(§1) The adopted biological assay protocol was: the effect of compounds on programmed necroptosis of TNF-induced FADD (Fas-Associated Death Domain) deficient Jurkat cells and L929 cells.
(§2) In order to verify the inhibitory effect of the compounds of the present invention on programmed cell necrosis at the cellular level, cell types that is closely related to the RIP1 pathway, namely FADD deficient Jurkat cells (human peripheral blood leukemia T cell strain) and L929 cells, were selected. Two different stimulation methods were used: tumor necrosis factor (TNFα) was used alone, or TNFα was used in combination with mitochondria-derived cysteine aspartate activator (SMAC) SM164. Cells viability was calculated by detecting chemiluminescence values, thereby obtaining the biological activity of the compound on the inhibition of programmed cell necrosis.
(§3) Methods: FADD deficient Jurkat cells: FADD deficient Jurkat cells (human peripheral blood leukemia T cell line) were cultured in vitro. After growing to the logarithmic growth phase, the cells were collected, centrifuged at 1000 rpm for 5 min, the supernatant was discarded, and the cell concentration was adjusted to 2.5×10^5/mL. Cells were seeded into 384-well plates, 40 μl per well. 5 μL of SM164 (50 nM) diluted in cell culture medium and 5 μL of each compound were added to the corresponding wells. After pretreatment at 37° C. for 1 h, 5 μL of TNFα (50 ng/mL) diluted in cell culture medium was added to each well of the stimulation group, and 5 μL of the culture medium was added to the control group. The plate was cultured in a cell incubator (37° C., 5% CO2) for 14 h, and […] of Cell Titer-Glo solution was added to each well, then incubated for 30 min at room temperature, and intracellular ATP level was measured by detecting luminescence. The unstimulated DMSO control wells were taken as 100% cell viability. L929 cells: The L929 cells (mouse fibroblasts) were cultured in vitro, digested and diluted to 6.25×10^4/ml, and the cells were seeded into 384-well plates, 40 μl per well. The plate was placed in a cell incubator (37° C., 5% CO2) for 12 hours. 5 μL of SM164 (500 nM) diluted in cell culture medium and 5 μL of each compound were added to the corresponding wells. After pretreatment at 37° C. for 1 h, 5 μL of TNFα (500 ng/mL) diluted in cell culture medium was added to each well of the stimulation group, and 5 μL of the culture medium was added to the control group. After the plate was cultured for 14 h in a cell incubator (37° C., 5% CO2), 15 μl of Cell Titer-Glo solution was added to each well. The plate was incubated at room temperature for 30 min, and intracellular ATP level was measured by detecting luminescence. The unstimulated DMSO control wells were taken as 100% cell viability. EC50 values of the compounds were calculated using Prism Graphpad statistical software.
Background: Cellular ATP, detected with luciferase, serves as a proxy for viable cell number.

The nature of data set [1]: Liver microsomal stability test, mouse. Format: in vitro ADME. The conditions noted are these: mouse, liver microsomes, mouse liver microsomes, NADPH, 37° C.; read-out: T1/2 (min) Mouse. From the text: (§4) The adopted biological test protocol was: testing the half-life of the compound in human- or mouse-derived liver microsomes.
(§5) Liver microsomes contain many enzymes involved in drug metabolism, especially cytochrome P-450, and therefore it is one of the major tissues involved in drug metabolism in living organisms. There are some correlations between the stability of the compound in liver microsomes and the pharmacogenetic stability thereof in vivo. Therefore, the relative stability of compounds in vivo can be roughly predicted by testing the half-life of different compounds in human- or mouse-derived liver microsomes. The specific methods were as follows:
(§6) Methods: 0.75 μL of 0.5 mM samples (compounds to be tested and control verapamil), 9.38 μL of 20 mg/mL liver microsomes (Human and Mouse) were taken and added to 239.88 μL PBS (on ice), and divided into 30 μL/tube samples respectively. The samples were incubated at 37° C. in a constant temperature water bath for 5 min, and then all samples were taken out. At zero-time, control group was added with 90 μL of ice acetonitrile first, and then added with 15 μL of 3 mM NADPH solution sequentially, and incubated at 37° C. in a constant temperature water bath. The corresponding samples were taken out after 5 min, 10 min, 20 min, 30 min and 60 min, respectively, and quenched by adding 90 μL of ice acetonitrile. All samples were centrifuged at 10000 rpm for 10 min, and the supernatants were taken and placed in a liquid phase vial waiting for LC-MS analysis.

The subject of the next data set is L929 cells. The data set is described as follows: Inhibition of TNF-induced programmed necrosis of L929 cells (Cell Titer-Glo viability). The conditions noted are these: Mus musculus, L929, L929 cells. In kind it is cell-based, mouse.
Text: as §1, §2, §3

Data set [2] can be described thus: Liver microsomal stability test, human. Format: in vitro ADME. The conditions noted are these: human, liver microsomes, human liver microsomes, NADPH, 37° C.; read-out: T1/2 (min) Human.
Text: as §4, §5, §6
For orientation: Liver microsomes are vesicles of endoplasmic reticulum, rich in cytochrome P450 enzymes.

Setting [3] is: 14 h, stimulated with TNFα + SM164, read-out: EC50 (μM) FADD−/− Jurkat cells (human) TNFα + SM164.
Setting [4] is: stimulated with TNFα alone, read-out: EC50 (μM) FADD−/− Jurkat cells (human) TNFα.
[5] abbreviates: stimulated with TNFα + SM164, read-out: EC50 (μM) L929 cells (mouse) TNFα + SM164.
Setting [6] is: stimulated with TNFα alone, read-out: EC50 (μM) L929 cells (mouse) TNFα.

Each structure is given as a SMILES string. Like-named read-outs stand apart in the source and are kept apart here.

Take `CNC(=O)c1ccc2c(c1)ncn2-c1ccc(CNC(=O)c2cc(Cc3ccccc3)on2)cc1` [QY-6-16, 5-Benzyl-N-(4-(5-(methylcarbamoyl)-1H-benzo[d]imidazol-1-yl)benzyl) isoxazol-3-formamide]: the EC50 in the data set on FADD−/− Jurkat cells (setting [3]) was 113 nM; in the data set with FADD−/− Jurkat cells (setting [4]) it was 8.1 nM; with L929 cells (setting [5]) it was 3.35 µM; with L929 cells (setting [6]), 2.14 µM. In addition, the half-life at 1 µM amounted to 24.8 min in data set [1] and 21.7 min in data set [2].

For the compound `CNC(=O)c1ccc2c(c1)ncn2-c1ccc(CNC(=O)c2noc(Cc3ccccc3)n2)cc1` [QY-7-14, 5-Benzyl-N-(4-(5-(methylcarbamoyl)-1H-benzo[d]imidazol-1-yl)benzyl)-1,2,4-oxadiazol-3-carboxamide], the EC50 in the data set with FADD−/− Jurkat cells (setting [3]) was found to be 180 nM; in the data set on FADD−/− Jurkat cells (setting [4]), 24.3 nM; with L929 cells (setting [5]) it was 4.74 µM; with L929 cells (setting [6]), 0.962 µM. In addition, the half-life at 1 µM in data set [1] stood at 77 min; in data set [2], 13.9 min.

As for `CNC(=O)c1ccc2c(c1)ncn2-c1ccc(CN2CCc3cn(Cc4ccccc4)nc3C2=O)cc1` [QY-8-7], the EC50 is 37.8 nM in the data set with FADD−/− Jurkat cells (setting [3]), 10.8 nM in the data set on FADD−/− Jurkat cells (setting [4]), > 10 µM with L929 cells (setting [5]) and 3 µM with L929 cells (setting [6]). Besides, the results for the half-life at 1 µM in data set [1] and in data set [2] were 12.2 min and 46.2 min, respectively.

Consider `Cn1ncc(C(=O)NCc2ccc(-n3ccc4c(N)ncnc43)cc2)c1Cc1ccccc1` [QY-10-39, N-(4-(4-amino-7H-pyrrolo[2,3-d]pyrimidine-7-yl)benzyl)-5-benzyl-1-methyl-1H-pyrazole-4-carboxamide], for which the EC50 in the data set with FADD−/− Jurkat cells (setting [3]) is 2.95 nM; with FADD−/− Jurkat cells (setting [4]), 0.07 nM; with L929 cells (setting [5]), 0.0961 µM; in the data set with L929 cells (setting [6]), 0.01 µM. Besides, in data set [1], the half-life at 1 µM worked out at 25.7 min.

`Cn1ncc(C(=O)NCc2ccc(-n3cnc4cc(C(=O)NCCN5CCOCC5)ccc43)cc2)c1Cc1ccccc1` [QY-11-68B]: the EC50 with FADD−/− Jurkat cells (setting [3]) was determined as 2.96 nM; in the data set on FADD−/− Jurkat cells (setting [4]), 0.696 nM; with L929 cells (setting [5]), 0.0834 µM; in the data set with L929 cells (setting [6]), 0.0205 µM. In data set [1], the half-life at 1 µM was determined as 34.7 min.

As to `Cn1nc(C(=O)NCc2ccc(-n3ccc4c(N)nccc43)cc2)cc1Cc1ccccc1` [ZSQ-16-3], the EC50 with FADD−/− Jurkat cells (setting [3]) was > 10000 nM; in the data set with FADD−/− Jurkat cells (setting [4]) it was 361 nM; with L929 cells (setting [5]), > 10 µM; with L929 cells (setting [6]) it was 2.32 µM.

For the compound `Nc1ncnc2c1ncn2-c1ccc(CNC(=O)c2cn(Cc3ccccc3)cn2)cc1` [ZSQ-21-13], the values for the EC50 with FADD−/− Jurkat cells (setting [3]) and with FADD−/− Jurkat cells (setting [4]) were 39 nM and 42.7 nM, respectively. The results for the half-life at 1 µM in data set [1] and in data set [2] were 99 min and 577 min, respectively.

On to `Nc1ncnc2c1ncn2-c1ccc(CNC(=O)c2ccc(Cl)n2Cc2ccccc2)cc1` [ZSQ-21-18], for which the EC50 with FADD−/− Jurkat cells (setting [3]) amounted to 80.6 nM; in the data set on FADD−/− Jurkat cells (setting [4]), 6.57 nM. The figures for the half-life at 1 µM in data set [1] and in data set [2] were 30.1 min and 8.6 min, respectively.

For `Nc1ncnc2c1ncn2-c1ccc(CNC(=O)c2ccc(F)n2Cc2ccccc2)cc1` [ZSQ-21-30], the EC50 with FADD−/− Jurkat cells (setting [3]) amounted to 1.6 nM; in the data set on FADD−/− Jurkat cells (setting [4]), 0.0853 nM; with L929 cells (setting [5]), 0.00741 µM; with L929 cells (setting [6]), 0.000916 µM.

As to `Cn1nc2c(c1Cc1ccccc1)C(=O)N(Cc1ccc(-n3cnc4c(N)ncnc43)cc1)CC2` [ZSQ-22-96], the EC50 in the data set on FADD−/− Jurkat cells (setting [3]) stood at 2.26 nM; in the data set on FADD−/− Jurkat cells (setting [4]) it was 0.203 nM; in the data set with L929 cells (setting [5]), 0.0386 µM; in the data set on L929 cells (setting [6]) it was 0.00839 µM.

The record behind these values is patent US20230331707A1, “PROGRAMMED CELL NECROSIS INHIBITOR, PREPARATION METHOD THEREFOR, AND USE THEREOF” (Shanghai Institute of Organic Chemistry, Chinese Academy of …, priority 2020, published 2023).
